Measurements published in PubChem BioAssay (NCI).
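Results reflect a 48-hour exposure of cells in 96-well plates to compound at five concentrations. GI50 = concentration required for 50% inhibition of growth. TGI is the concentration that stops growth completely.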

Experiments:
Assay in all cases: DTP human tumour cell line panel, 48 h
CAKI-1 renal = tested on: CAKI-1 renal
HCT-116 colon = tested on: HCT-116 colon
NCI-H226 lung = tested on: NCI-H226 lung
NCI-H522 lung = tested on: NCI-H522 lung
OVCAR-3 ovarian = tested on: OVCAR-3 ovarian
OVCAR-4 ovarian = tested on: OVCAR-4 ovarian
SK-MEL-28 melanoma = tested on: SK-MEL-28 melanoma
UACC-257 melanoma = tested on: UACC-257 melanoma
K-562 leukemia = tested on: K-562 leukemia
SNB-19 CNS = tested on: SNB-19 CNS

SMILES	TGI (CAKI-1 renal)	TGI (HCT-116 colon)	TGI (NCI-H226 lung)	TGI (NCI-H522 lung)	TGI (OVCAR-3 ovarian)	TGI (OVCAR-4 ovarian)	TGI (SK-MEL-28 melanoma)	TGI (UACC-257 melanoma)	TGI (K-562 leukemia)	TGI (SNB-19 CNS)	GI50 (CAKI-1 renal)	GI50 (HCT-116 colon)	GI50 (K-562 leukemia)	GI50 (OVCAR-3 ovarian)	GI50 (SK-MEL-28 melanoma)	GI50 (SNB-19 CNS)	GI50 (UACC-257 melanoma)	GI50 (NCI-H226 lung)	GI50 (NCI-H522 lung)	GI50 (OVCAR-4 ovarian)
C[N+](C)(C)CC1CCCCC1O (centres undefined)	> 100 µM	> 100 µM	> 100 µM	> 100 µM	> 100 µM	> 100 µM	> 100 µM	> 100 µM												
COc1ccc(CN2CCC/C=C/CC(Cl)(Cl)C2=O)cc1	> 100 µM	> 100 µM		59.4 µM	> 100 µM	98.8 µM	> 100 µM		> 100 µM	95.4 µM										
C[C@H]1CCCC(O)C(O)[C@@H]2C[C@H](O[Si](C)(C)C(C)(C)C)C[C@H]2[C@H](O[Si](C)(C)C(C)(C)C)C(O)C(O)C(=O)O1 (some centres undefined)	89.7 µM	> 100 µM			79.7 µM		> 100 µM	> 100 µM	> 100 µM	46.7 µM	23.5 µM	28.3 µM	69.4 µM	25 µM	47.9 µM	15.9 µM	35.2 µM			
CSc1nnc(COc2ccc(Cl)cc2)o1	> 100 µM	> 100 µM		> 100 µM	> 100 µM	> 100 µM	> 100 µM	> 100 µM		> 100 µM										
CC(C)(C)C(=O)[CH-]C(=O)C(C)(C)C.CC(C)(C)C(=O)[CH-]C(=O)C(C)(C)C.CN(C)c1ccc([O-])cc1.CN(C)c1ccc([O-])cc1.[Ti+4]	> 100 µM	> 100 µM	> 100 µM	> 100 µM	> 100 µM	> 100 µM	> 100 µM	> 100 µM	> 100 µM		> 100 µM	> 100 µM	> 100 µM	96.2 µM	> 100 µM		> 100 µM	> 100 µM	> 100 µM	> 100 µM
Cn1c2c(c3ccccc31)CCN(CCN1CCN(c3cccc(Cl)c3)CC1)C2=O		> 100 µM		> 100 µM			> 100 µM		> 100 µM											
COC(=O)C1(C(=O)OC)CC(=O)c2cc3c(cc2-c2c(cc(OC)c(OC)c2OC)C1)OCO3	> 211 µM	> 211 µM	> 211 µM	> 211 µM	> 211 µM		> 211 µM	> 211 µM	> 211 µM	> 211 µM										
Cc1c2ccccc2cc2ccc3oc([N+](=O)[O-])cc3c12	> 100 µM	> 100 µM			> 100 µM	> 100 µM		> 100 µM	> 100 µM	> 100 µM										
O=c1oc2ccccc2[n+]([O-])c1-c1ccccc1	> 100 µM	> 100 µM	> 100 µM	> 100 µM	> 100 µM	> 100 µM	> 100 µM	> 100 µM	> 100 µM	> 100 µM										
CC(C)(Oc1ccc(/C=C/C(=O)c2ccc(Cl)cc2)cc1)C(=O)Nc1c(Cl)cccc1Cl	48.9 µM	18.5 µM	51.5 µM		44.8 µM	> 100 µM	30.3 µM	99.6 µM	> 100 µM	> 100 µM										
O=C(N/N=C/c1cccc(F)c1)c1ccncc1		> 100 µM	3.78 µM				> 100 µM	> 100 µM		> 100 µM										
Cc1ccc(-c2nc3nc(-c4ccc(F)cc4)nc(N4CCCNCC4)c3o2)cc1	2.74 µM	1.73 µM	4.05 µM	3.51 µM	2.96 µM	3.25 µM	3.23 µM	3.65 µM	0.539 µM	3.22 µM	1.44 µM	0.457 µM	0.225 µM	1.55 µM	1.79 µM	1.7 µM	1.89 µM	1.96 µM	1.65 µM	1.83 µM
CCCCCCCCCCCCCCCC[N+]1(C)CCOCC1	22.5 µM	3.87 µM		5.07 µM	3.61 µM		7.69 µM	17.2 µM			5.32 µM	1.59 µM		1.56 µM	2.42 µM		4 µM		2.09 µM	
O=C(N/N=C/c1ccccc1O)c1ccccc1		5.19 µM	17.4 µM	53 µM	> 100 µM	> 100 µM	> 100 µM	37.1 µM	> 100 µM	> 100 µM		0.309 µM	3.59 µM	0.669 µM	6.69 µM	6.22 µM	3.47 µM	1.94 µM	2.67 µM	0.725 µM
O=c1cc(/C=C/c2ccccc2)[nH]c2cc3c(cc12)OCO3		13.4 µM	10.8 µM		5.82 µM	30.2 µM	34.9 µM	97.7 µM		13.4 µM				2.22 µM				2.91 µM		
O=S(=O)(NCCCNc1nccc(-c2c(-c3ccc(F)cc3)nc3sccn23)n1)c1ccc2ccccc2c1	> 100 µM	> 100 µM	> 100 µM	> 100 µM		> 100 µM	> 100 µM	> 100 µM		> 100 µM	5.47 µM	4.41 µM			> 100 µM	8.53 µM	> 100 µM	5.77 µM	5.66 µM	5.99 µM
O=C(/C=C/c1ccccc1)CC(=O)CCC(=O)Nc1ccc(Cl)cc1	> 100 µM	> 100 µM	> 100 µM	> 100 µM	> 100 µM	> 100 µM		> 100 µM	> 100 µM	> 100 µM										
COC(=O)C1=Nc2c(C)nn(-c3ccccc3)c2N=C(c2ccccc2)C1	> 10 µM	> 10 µM		> 10 µM	> 10 µM	> 10 µM	> 10 µM	> 10 µM	> 10 µM	> 10 µM										
CCCCn1c(-c2ccc(C(=O)O/N=C(\N)c3ccc4c(c3)OCO4)cc2)nc(-c2ccccc2)c1-c1ccccc1	3.37 µM	3.66 µM	> 100 µM	4.89 µM		> 100 µM	> 100 µM	> 100 µM		43.6 µM	1.35 µM	1.7 µM			5.69 µM	3.04 µM	6.43 µM	3.93 µM	2.04 µM	3.5 µM
